# Measured values reported in patent US20140142180A1, “METHODS OF TREATING TUMORS HAVING ELEVATED MCT1 EXPRESSION” (Whitehead Institute for Biomedical Research, priority 2012, published 2014).
# How the values were obtained:
# [1] = target: GAPDH (Homo sapiens, UniProt P04406); conditions: covalent bond with active-site cysteine; cited from earlier work
# [2] = target: T1, MCT1 (Homo sapiens, UniProt P53985); test: 14C-3-BrPA uptake assay, wild type KBM7 cells; type: cell-based; conditions: wild type KBM7 in HBSS, up to 20 minutes, unlabeled competitor
# T1 construct: endogenous in cells; host or cells: wild type KBM7 cells (near-haploid human cell line)
# T1 sequence (P53985 1-500): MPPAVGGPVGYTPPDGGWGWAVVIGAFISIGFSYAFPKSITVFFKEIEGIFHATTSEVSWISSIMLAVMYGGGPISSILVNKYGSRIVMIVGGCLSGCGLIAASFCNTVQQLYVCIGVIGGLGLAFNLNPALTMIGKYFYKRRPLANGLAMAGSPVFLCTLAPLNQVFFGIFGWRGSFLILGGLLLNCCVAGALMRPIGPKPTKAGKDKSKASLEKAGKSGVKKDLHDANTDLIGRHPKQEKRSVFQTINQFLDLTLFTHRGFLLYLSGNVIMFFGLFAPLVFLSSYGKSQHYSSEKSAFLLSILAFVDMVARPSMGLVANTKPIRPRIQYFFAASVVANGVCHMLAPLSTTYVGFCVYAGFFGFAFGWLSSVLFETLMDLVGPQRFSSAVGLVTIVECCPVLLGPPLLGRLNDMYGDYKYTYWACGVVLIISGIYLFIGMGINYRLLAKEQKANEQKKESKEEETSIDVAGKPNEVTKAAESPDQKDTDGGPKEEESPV
# T1 sequence (P35613 140-385 partner limits assumed): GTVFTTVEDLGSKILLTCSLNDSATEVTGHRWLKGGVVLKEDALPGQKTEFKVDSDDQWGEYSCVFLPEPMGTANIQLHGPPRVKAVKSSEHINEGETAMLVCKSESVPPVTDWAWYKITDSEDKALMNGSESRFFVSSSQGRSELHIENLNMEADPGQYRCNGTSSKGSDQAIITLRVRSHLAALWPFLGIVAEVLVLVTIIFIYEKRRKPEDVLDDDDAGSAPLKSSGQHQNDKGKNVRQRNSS
# Method: Wild type KBM7 or MCT1-null cells were seeded in HBSS and exposed for up to 20 minutes to 100 μM ^14C-labeled 3-BrPA (6.8 mCi/mmole) (Moravek) with or without competitor molecules like 3-BrPA, Pyruvate, L-Lactate and D-Lactate. Cells were washed with cold HBSS, lysed in a NaOH buffer, and uptake measured using a liquid scintillation counter.
# [3] = test system: MCT1; conditions: cited from earlier work
# GAPDH, sequence (P04406 whole entry, species assumed): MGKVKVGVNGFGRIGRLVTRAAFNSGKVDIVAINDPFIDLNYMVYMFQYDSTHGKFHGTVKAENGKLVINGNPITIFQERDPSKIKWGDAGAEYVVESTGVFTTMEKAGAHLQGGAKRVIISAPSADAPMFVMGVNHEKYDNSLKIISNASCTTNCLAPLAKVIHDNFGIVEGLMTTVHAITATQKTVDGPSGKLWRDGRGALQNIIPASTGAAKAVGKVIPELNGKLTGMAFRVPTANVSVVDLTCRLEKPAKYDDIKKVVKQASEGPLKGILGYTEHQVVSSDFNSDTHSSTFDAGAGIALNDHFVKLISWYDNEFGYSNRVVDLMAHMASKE
compound,measurement,setting,value
CC1=C[C@@]23C(COC(=O)C24CO4)C(C(=O)O)=CC3[C@@H]1C (some centres unmarked) [Pentalenolactone],inhibition of GAPDH,[1],potently inhibit
CC(O)C(=O)O (centres unmarked) [lactate],competition with the uptake of radiolabeled 3-BrPA,[2],to a lesser extent
"N#C/C(=C\c1ccc(O)cc1)C(=O)O [α-cyano-4-hydroxycinnamate (CHC), α-cyano-4-hydroxycinnamate]",antitumor effect,[3]; alone or in combination with radiotherapy in mice,potent antitumor affects
same,toxicity,[3]; mice,without exerting overt toxicity
CC(C)C1CC[C@@]2(CO2)[C@H]2C(=O)OCC(C(=O)O)=C[C@H]12 (some centres unmarked) [koningic acid],inhibition of GAPDH,[1],potently inhibit
